For series [1] the following is noted: Crystal; DTA.
Series [2] is described as follows: Molar enthalpy of transition or fusion. Conditions: Crystal; DSC.

± gives the expanded uncertainty stated by the source.

Results on eleven compounds are retold here after the NIST ThermoML archive (doi:10.1021/je300143a).

Consider `CC(=O)c1ccc(NC2=NCCC3(CCCCC3)S2)cc1`, for which the Normal melting temperature in series [1] worked out at 163.5 ± 0.5 °C. In addition, the “Molar enthalpy of transition or fusion” value in series [2] worked out at 32.5 ± 1.2 kJ/mol.
In the same order, the values of `CC(C)c1ccc(NC2=NCCC3(CCCCC3)S2)cc1` are 139.6 ± 0.5 °C and 29.2 ± 1.2 kJ/mol.
As for `Cc1ccc(NC2=NCCC3(CCCCC3)S2)cc1Cl`, the Normal melting temperature in series [1] was 149.2 ± 0.5 °C. In series [2], the “Molar enthalpy of transition or fusion” value turned out to be 33.2 ± 1.2 kJ/mol.
The matching figures for `FC(F)(F)c1ccc(NC2=NCCC3(CCCCC3)S2)cc1`: 149.7 ± 0.5 °C and 32.9 ± 1.2 kJ/mol.
In the same order, the values of `O=C(NC1=NCCC2(CCCCC2)S1)c1ccccc1` [N-(1-thia-3-azaspiro[5.5]undec-2-en-2-yl)benzamide] are 130.2 ± 0.5 °C and 27.9 ± 1.2 kJ/mol.
The matching figures for `Brc1ccc(NC2=NCCC3(CCCCC3)S2)cc1` [N-(4-bromophenyl)-1-thia-3-azaspiro[5.5]undec-2-en-2-amine]: 175.2 ± 0.5 °C and 44.3 ± 1.3 kJ/mol.
`Clc1ccc(NC2=NCCC3(CCCCC3)S2)cc1` [N-(4-chlorophenyl)-1-thia-3-azaspiro[5.5]undec-2-en-2-amine]: the Normal melting temperature in series [1] was 162.6 ± 0.5 °C. Besides, in series [2], the “Molar enthalpy of transition or fusion” value stood at 27.9 ± 1.2 kJ/mol.
As for `CCc1ccc(NC2=NCCC3(CCCCC3)S2)cc1` [N-(4-ethylphenyl)-1-thia-3-azaspiro[5.5]undec-2-en-2-amine], the Normal melting temperature in series [1] was determined as 139.4 ± 0.5 °C. For the same compound, the “Molar enthalpy of transition or fusion” value in series [2] amounted to 42.8 ± 1.3 kJ/mol.
In the same order, the values of `COc1ccc(NC2=NCCC3(CCCCC3)S2)cc1` [N-(4-methoxyphenyl)-1-thia-3-azaspiro[5.5]undec-2-en-2-amine] are 115.4 ± 0.5 °C and 29.3 ± 1.2 kJ/mol.
The matching figures for `Cc1ccc(NC2=NCCC3(CCCCC3)S2)cc1` [N-(4-methylphenyl)-1-thia-3-azaspiro[5.5]undec-2-en-2-amine]: 108.2 ± 0.5 °C and 41.9 ± 1.3 kJ/mol.
The matching figures for `c1ccc(NC2=NCCC3(CCCCC3)S2)cc1` [N-phenyl-1-thia-3-azaspiro[5.5]undec-2-en-2-amine]: 113.4 ± 0.5 °C and 21.6 ± 1.1 kJ/mol.
